Read-outs that look alike come from different tables or passages of the source.
Biological target: T1, hmGlu5 (Homo sapiens, UniProt P41594)
T1 construct: expressed in transfected cells; host or cells: HEK 293A
Experiment: mGlu5 Ca2+ flux assay in HEK 293A cells (negative allosteric modulation of glutamate EC80 response)
Type: cell-based
Conditions: for remaining activity at 30 µM: HEK293-A, read-out: hmGlu5 NAM Emin (%); for IC50: HEK 293A cells, Ca2+ flux, glutamate EC80, >10,000 = decrease without plateau, read-out: hmGlu5 NAM IC50
Description: HEK 293A cells stably expressing either rat or human mGlu5 were plated in black-walled, clear-bottomed, poly-D-lysine coated 384-well plates in 20 μL of assay medium (DMEM containing 10% dialyzed FBS, 20 mM HEPES, 100 units/mL penicillin/streptomycin plus 250 ng/mL Fungizone, and 1 mM sodium pyruvate) at a density of 20K cells/well. The cells were grown overnight at 37° C. in the presence of 5% CO2. The next day, medium was removed and the cells incubated with 20 μL of 2.3 μM Fluo-4, AM prepared as a 2.3 mM stock in DMSO and mixed in a 1:1 ratio with 10% (w/v) pluronic acid F-127 and diluted in assay buffer (Hank's balanced salt solution, 20 mM HEPES, and 2.5 mM probenecid) for 45 minutes at 37° C. Dye was removed, 20 μL of assay buffer was added, and the plate was incubated for 5 minutes at room temperature.
Ca^2+ flux was measured using the Functional Drug Screening System (FDSS7000, Hamamatsu, Japan). After establishment of a fluorescence baseline for about 3 seconds, the compounds of the present invention were added to the cells, and the response in cells was measured. 2.3 minutes later an EC20 concentration of the mGlu5 receptor agonist glutamate was added to the cells, and the response of the cells was measured for 1.9 minutes; an EC80 concentration of agonist was added and readings taken for an additional 1.7 minutes. All test compounds were dissolved and diluted to a concentration of 10 mM in 100% DMSO. Compounds were then serially diluted 1:3 in DMSO into 10 point concentration response curves, transferred to daughter plates, and further diluted into assay buffer to a 2× stock. Calcium fluorescence measures were recorded as fold over basal fluorescence; raw data was then normalized to the maximal response to glutamate. Antagonism of the agonist response of the mGlu5 receptor in the present invention was observed as a decrease in response to nearly maximal concentrations of glutamate in the presence of compound compared to the response to glutamate in the absence of compound.
The raw data file containing all time points was used as the data source in the analysis template. This was saved by the FDSS as a tab-delimited text file. Data were normalized using a static ratio function (F/F0) for each measurement of the total 360 values per well divided by each well's initial value. Data were then reduced to peak amplitudes (Max−Initial Min) using a time range that starts approximately 3 seconds prior to the glutamate EC20/EC80 addition and continues for approximately 90-120 seconds. This is sufficient time to capture the peak amplitude of the cellular calcium response. Individual amplitudes were expressed as % EMax by multiplying each amplitude by 100 and then dividing the product by the mean of the amplitudes derived from the glutamate ECMax-treated wells. IC50 values for test compounds were generated by fitting the normalized values versus the log of the test compound concentration (in mol/L) using a 4 parameter logistic equation where none of the parameters were fixed. Each of the three values collected at each concentration of test compound were weighted evenly.
For NAMs with a CRC that plateaus above 10% Glu Max, the IC50 values are reported, the compound is designated a “partial NAM” and the % Glu Max is reported. […] Compounds without measurable activity are designated as “>30,000 nM” since the top concentration of compound tested in the assay is 30 μM. […]

T1 sequence (P41594 21-1212): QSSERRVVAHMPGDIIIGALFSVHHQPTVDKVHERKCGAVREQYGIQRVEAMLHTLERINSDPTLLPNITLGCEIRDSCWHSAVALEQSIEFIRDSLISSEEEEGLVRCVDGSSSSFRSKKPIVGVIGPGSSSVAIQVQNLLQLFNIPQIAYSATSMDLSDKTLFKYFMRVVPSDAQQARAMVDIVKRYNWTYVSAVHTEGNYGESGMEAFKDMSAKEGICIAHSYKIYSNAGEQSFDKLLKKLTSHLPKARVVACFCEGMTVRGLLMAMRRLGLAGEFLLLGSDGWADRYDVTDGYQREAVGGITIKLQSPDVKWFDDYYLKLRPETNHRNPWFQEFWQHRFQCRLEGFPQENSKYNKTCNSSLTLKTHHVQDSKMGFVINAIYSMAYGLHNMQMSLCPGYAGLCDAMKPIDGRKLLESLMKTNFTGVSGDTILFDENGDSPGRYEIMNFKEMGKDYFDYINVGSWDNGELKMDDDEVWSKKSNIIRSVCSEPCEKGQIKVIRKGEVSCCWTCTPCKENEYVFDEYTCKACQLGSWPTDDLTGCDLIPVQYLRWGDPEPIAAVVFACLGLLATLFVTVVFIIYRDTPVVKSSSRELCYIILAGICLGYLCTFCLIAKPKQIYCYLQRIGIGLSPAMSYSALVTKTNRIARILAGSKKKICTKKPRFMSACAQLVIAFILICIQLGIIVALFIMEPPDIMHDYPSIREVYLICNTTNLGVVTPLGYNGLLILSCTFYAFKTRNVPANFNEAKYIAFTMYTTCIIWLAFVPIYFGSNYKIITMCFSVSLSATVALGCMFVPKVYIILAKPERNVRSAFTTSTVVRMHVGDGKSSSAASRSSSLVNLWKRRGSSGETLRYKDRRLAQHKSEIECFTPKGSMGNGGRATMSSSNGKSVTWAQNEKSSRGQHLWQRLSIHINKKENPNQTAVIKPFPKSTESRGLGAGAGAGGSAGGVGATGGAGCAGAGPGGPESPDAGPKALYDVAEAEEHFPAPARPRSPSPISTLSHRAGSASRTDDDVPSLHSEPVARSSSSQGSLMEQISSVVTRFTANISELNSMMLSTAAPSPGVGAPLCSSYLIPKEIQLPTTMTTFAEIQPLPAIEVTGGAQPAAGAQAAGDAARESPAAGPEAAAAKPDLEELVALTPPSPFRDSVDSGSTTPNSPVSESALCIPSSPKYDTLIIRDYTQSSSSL

| SMILES | remaining activity at 30 µM (% Glu max at 30 μM) | IC50 | remaining activity at 30 µM |
| --- | --- | --- | --- |
| Cc1ccncc1-c1cc(-c2noc(-c3ccc(F)cn3)n2)nc(C(F)F)c1 [Compound 60, 3-(6′-(difluoromethyl)-4-methyl-[3,4′-bipyridin]-2′-yl)-5-(5-fluoropyridin-2-yl)-1,2,4-oxadiazole] | 4% | 187 nM | – |
| Cc1ccncc1-c1cc(-c2noc(-c3cccc(C#N)c3)n2)nc(C)c1F [Compound 24, 3-(3-(5′-fluoro-4,6′-dimethyl-[3,4′-bipyridin]-2′-yl)-1,2,4-oxadiazol-5-yl)benzonitrile] | 2% | 85 nM | – |
| Cc1ccncc1-c1cc(-c2noc(-c3cscn3)n2)nc(C)c1F [Compound 27, 3-(5′-fluoro-4,6′-dimethyl-[3,4′-bipyridin]-2′-yl)-5-(thiazol-4-yl)-1,2,4-oxadiazole] | 2% | 308 nM | – |
| COc1ccncc1-c1cc(-c2nnc(-c3ccc(F)cn3)o2)nc(C)c1F [Compound 73, 2-(5′-fluoro-4-methoxy-6′-methyl-[3,4′-bipyridin]-2′-yl)-5-(5-fluoropyridin-2-yl)-1,3,4-oxadiazole] | 2% | 298 nM | – |
| COc1cc(-c2cc(-c3nnc(-c4ccc(F)cn4)o3)nc(C)c2F)ccn1 [Compound 108, 2-(5-fluoro-2′-methoxy-6-methyl-[4,4′-bipyridin]-2-yl)-5-(5-fluoropyridin-2-yl)-1,3,4-oxadiazole] | 1% | 94 nM | – |
| Cc1csc(-c2nc(-c3cc(-c4cnccc4C)c(F)c(C)n3)no2)n1 [Compound 15, 3-(5′-fluoro-4,6′-dimethyl-[3,4′-bipyridin]-2′-yl)-5-(4-methylthiazol-2-yl)-1,2,4-oxadiazole] | 2% | 97 nM | – |
| Cc1ccncc1-c1cc(-c2noc(-c3ncccc3F)n2)ncc1F [Compound 2, 3-(5′-fluoro-4-methyl-[3,4′-bipyridin]-2′-yl)-5-(3-fluoropyridin-2-yl)-1,2,4-oxadiazole] | 25% | 2630 nM | – |
| Cc1nc(-c2nc(-c3ccc(F)cn3)no2)cc(-c2cnn(C(F)F)c2)c1F [Compound 9, 5-(4-(1-(difluoromethyl)-1H-pyrazol-4-yl)-5-fluoro-6-methylpyridin-2-yl)-3-(5-fluoropyridin-2-yl)-1,2,4-oxadiazole] | 2% | 328 nM | – |
| COc1cncc(-c2cc(-c3noc(-c4ccc(F)cn4)n3)nc(C)c2F)c1 [Compound 30, 3-(5′-fluoro-5-methoxy-6′-methyl-[3,4′-bipyridin]-2′-yl)-5-(5-fluoropyridin-2-yl)-1,2,4-oxadiazole] | 3% | 493 nM | – |
| Cc1ccn(Cc2nc(-c3cc(-c4cnccc4C)c(F)c(C)n3)no2)n1 [Compound 65, 3-(5′-fluoro-4,6′-dimethyl-[3,4′-bipyridin]-2′-yl)-5-((3-methyl-1H-pyrazol-1-yl)methyl)-1,2,4-oxadiazole] | 36% | > 10000 nM | – |
| COc1c(-c2cncc(F)c2)cc(-c2noc(-c3ccc(F)cn3)n2)nc1C [Compound 11, 3-(5-fluoro-5′-methoxy-6′-methyl-[3,4′-bipyridin]-2′-yl)-5-(5-fluoropyridin-2-yl)-1,2,4-oxadiazole] | 2% | 452 nM | – |
| Cc1nc(-c2nnc(-c3ccc(F)cn3)o2)cc(-c2cnsc2)c1F [Compound 110, 2-(5-fluoro-4-(isothiazol-4-yl)-6-methylpyridin-2-yl)-5-(5-fluoropyridin-2-yl)-1,3,4-oxadiazole] | 2% | 185 nM | – |
| Cc1ccncc1-c1cc(-c2noc(-c3ccncc3)n2)nc(C)c1F [Compound 93, 3-(5′-fluoro-4,6′-dimethyl-[3,4′-bipyridin]-2′-yl)-5-(pyridin-4-yl)-1,2,4-oxadiazole] | 2% | 221 nM | – |
| Cc1cccc(-c2nc(-c3cc(-c4cnccc4C)c(F)c(C)n3)no2)c1 [Compound 28, 3-(5′-fluoro-4,6′-dimethyl-[3,4′-bipyridin]-2′-yl)-5-(m-tolyl)-1,2,4-oxadiazole] | 2% | 69 nM | – |
| Cc1nc(-c2noc(C3CCOCC3)n2)cc(-c2cncc(F)c2)c1F [Compound 37, 3-(5,5′-difluoro-6′-methyl-[3,4′-bipyridin]-2′-yl)-5-(tetrahydro-2H-pyran-4-yl)-1,2,4-oxadiazole] | 54% | > 10000 nM | – |
| [2H]C([2H])([2H])c1cc(-c2cncc(F)c2)cc(-c2noc(-c3ccc(F)cn3)n2)n1 [Compound 35, 3-(5-fluoro-6′-(methyl-d3)-[3,4′-bipyridin]-2′-yl)-5-(5-fluoropyridin-2-yl)-1,2,4-oxadiazole] | 2% | 207 nM | – |
| Cc1cc(CC2CCOCC2)cc(-c2noc(-c3ccc(F)cn3)n2)n1 [Compound 71, 5-(5-fluoropyridin-2-yl)-3-(6-methyl-4-((tetrahydro-2H-pyran-4-yl)methyl)pyridin-2-yl)-1,2,4-oxadiazole] | 45% | > 10000 nM | – |
| Cc1cc(O[C@@H]2CCOC2)cc(-c2noc(-c3nc(C)cs3)n2)n1 [Compound 106, (R)-3-(6-methyl-4-((tetrahydrofuran-3-yl)oxy)pyridin-2-yl)-5-(4-methylthiazol-2-yl)-1,2,4-oxadiazole] | 2% | 387 nM | – |
| Cc1ccncc1-c1cc(-c2noc(-c3ccc(Cl)cn3)n2)nc(C)c1F [Compound 26, 5-(5-chloropyridin-2-yl)-3-(5′-fluoro-4,6′-dimethyl-[3,4′-bipyridin]-2′-yl)-1,2,4-oxadiazole] | 2% | 575 nM | – |
| Cc1nc(-c2noc(-c3ccc(F)cn3)n2)cc(-c2ccc(C(F)(F)F)nc2)c1F [Compound 29, 3-(5′-fluoro-6′-methyl-6-(trifluoromethyl)-[3,4′-bipyridin]-2′-yl)-5-(5-fluoropyridin-2-yl)-1,2,4-oxadiazole] | 37% | 1720 nM | – |
| Cc1csc(-c2noc(-c3cc(-c4cnccc4C)c(F)c(C)n3)n2)n1 [Compound 105, 5-(5′-fluoro-4,6′-dimethyl-[3,4′-bipyridin]-2′-yl)-3-(4-methylthiazol-2-yl)-1,2,4-oxadiazole] | 13% | > 10000 nM | – |
| Cc1nc(-c2nnc(-c3ccccn3)o2)cc(-c2cncc(F)c2)c1F [Compound 79, 2-(5,5′-difluoro-6′-methyl-[3,4′-bipyridin]-2′-yl)-5-(pyridin-2-yl)-1,3,4-oxadiazole] | – | 673 nM | 2% |
| Cc1nc(-c2nnc(-c3cccnc3)o2)cc(-c2cncc(F)c2)c1F [Compound 80, 2-(5,5′-difluoro-6′-methyl-[3,4′-bipyridin]-2′-yl)-5-(pyridin-3-yl)-1,3,4-oxadiazole] | – | 3340 nM | 58% |
| Cc1nc(-c2noc(-c3ccc(F)cn3)n2)cc(-c2cncc(F)c2C)c1F [Compound 41, 3-(5,5′-difluoro-4,6′-dimethyl-[3,4′-bipyridin]-2′-yl)-5-(5-fluoropyridin-2-yl)-1,2,4-oxadiazole] | 2% | 304 nM | – |
| Cc1ccncc1-c1cc(-c2noc(C(C)c3ccccc3)n2)nc(C)c1F (stereo not shown) [Compound 95, 3-(5′-fluoro-4,6′-dimethyl-[3,4′-bipyridin]-2′-yl)-5-(1-phenylethyl)-1,2,4-oxadiazole] | 27% | > 10000 nM | – |
| Cc1nc(-c2noc(-c3ccc(F)cc3)n2)cc(-c2cncc(F)c2)c1F [Compound 48, 3-(5,5′-difluoro-6′-methyl-[3,4′-bipyridin]-2′-yl)-5-(4-fluorophenyl)-1,2,4-oxadiazole] | 3% | 81 nM | – |
